Data from US7368576B2, “Dipeptidyl peptidase IV inhibitors and their uses as anti-cancer agents” (Probiodrug AG, priority 2001, dated 2008).

Key:
Format in all cases: biochemical
[1] = target: T1, dipeptidyl peptidase IV from porcine kidney (Sus scrofa, UniProt P22411); test: Ki determination, DPIV inhibition (glycylprolyl-4-nitroaniline); conditions: HEPES pH7.6, 30° C.
T1 construct: dipeptidyl peptidase IV from porcine kidney; from tissue; host or cells: porcine kidney

purified porcine DPIV = purified porcine DPIV (Sus scrofa, UniProt P22411); test: Determination of IC50 values, DPIV (Gly-Pro-pNA); conditions: Gly-Pro-pNA 0.4 mM, HEPES pH7.6, 30° C.
Description: 100 μl inhibitor stock solution were mixed with 100 μl buffer (HEPES pH7.6) and 50 μl substrate (Gly-Pro-pNA, final concentration 0.4 mM) and preincubated at 30° C. Reaction was started by addition of 20 μl purified porcine DPIV. Formation of the product pNA was measured at 405 nm over 10 min using the HTS 7000Plus plate reader (Perkin Elmer) and slopes were calculated. The final inhibitor concentrations ranged between 1 mM and 30 nM. For calculation of IC50 GraFit 4.0.13 (Erithacus Software) was used.

[2] = target: T2, Dipeptidyl Peptidase I (DP I, Cathepsin C) (Rattus norvegicus, UniProt P80067); test: Cross reacting enzymes: dipeptidyl peptidase I; conditions: concentration range 1*10^−5 M-1*10^−7 M
T2 construct: purchased Qiagen GmbH, Hilden, Germany
T2 sequence (P80067 25-462): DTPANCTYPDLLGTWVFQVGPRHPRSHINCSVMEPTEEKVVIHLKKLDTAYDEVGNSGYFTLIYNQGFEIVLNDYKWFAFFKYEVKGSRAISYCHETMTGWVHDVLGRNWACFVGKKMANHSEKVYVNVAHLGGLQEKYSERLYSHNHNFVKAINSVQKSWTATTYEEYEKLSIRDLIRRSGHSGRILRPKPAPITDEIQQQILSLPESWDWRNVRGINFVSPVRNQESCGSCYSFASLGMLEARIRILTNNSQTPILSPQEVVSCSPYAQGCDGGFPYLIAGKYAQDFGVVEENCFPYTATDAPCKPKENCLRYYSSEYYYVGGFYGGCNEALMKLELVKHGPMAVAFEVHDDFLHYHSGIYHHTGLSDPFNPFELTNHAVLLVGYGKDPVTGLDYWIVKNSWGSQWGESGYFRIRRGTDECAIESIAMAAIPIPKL
Description: DP I or cathepsin C is a lysosomal cysteine protease which cleaves off dipeptides from the N-terminus of their substrates (Gutman, H. R. & Fruton, J. S., 1948, J. Biol: Chem., 174, 851-858). It is classified as a cysteine protease. The enzyme used was purchased from Qiagen (Qiagen GmbH, Hilden, Germany). In order to get a fully active enzyme, the enzyme was diluted 1000fold in MES buffer pH5.6 (40 mM MES, 4 mM DTT, 4 mM KCl, 2 mM EDTA, 0.015% Brij) and pre-incubated for 30 min at 30° C.
50 μl glutaminyl pyrrolidine or glutaminyl thiazolidine in a concentration range of 1*10^−5 M-1*10^−7 M were admixed with 110 μl buffer-enzyme-mixture. The assay mixture was pre-incubated at 30° C. for 15 min. After pre-incubation, 100 μl histidylseryl-β-nitroaniline (2*10^-5M) was added and measurement of yellow color development due to β-nitroaniline release was performed at 30° C. and […] for 10 min., using a plate reader (HTS7000 plus, Applied Biosystems, Weiterstadt, Germany).
The IC50-values were calculated using Graphit 4.0.15 (Erithacus Software, Ltd., UK).

[3] = target: T3, Prolidase from porcine kidney (Sus scrofa, UniProt A0A5G2QQV1); test: Cross reacting enzymes: prolidase; conditions: Ile-Pro-OH 0.5 mM, pH 7.6; read-out: IC50 against prolidase
T3 construct: Prolidase from porcine kidney; purchased ICN Biomedicals, Eschwege, Germany; host or cells: porcine kidney
T3 sequence (A0A5G2QQV1 1-463): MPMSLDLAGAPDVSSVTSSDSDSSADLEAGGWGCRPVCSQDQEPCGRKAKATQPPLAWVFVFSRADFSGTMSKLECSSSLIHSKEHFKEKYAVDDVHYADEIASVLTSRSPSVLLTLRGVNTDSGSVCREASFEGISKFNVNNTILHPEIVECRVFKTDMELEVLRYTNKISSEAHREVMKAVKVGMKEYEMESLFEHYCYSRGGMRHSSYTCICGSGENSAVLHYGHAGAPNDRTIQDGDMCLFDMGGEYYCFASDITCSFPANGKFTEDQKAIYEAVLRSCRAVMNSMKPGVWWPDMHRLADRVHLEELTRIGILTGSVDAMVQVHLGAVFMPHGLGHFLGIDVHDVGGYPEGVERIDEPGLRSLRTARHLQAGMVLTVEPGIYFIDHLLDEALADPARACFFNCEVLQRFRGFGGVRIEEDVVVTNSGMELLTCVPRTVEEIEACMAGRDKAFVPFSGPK
Description: Prolidase from porcine kidney (ICN Biomedicals, Eschwege, Germany) was solved (1 mg/ml) in assay buffer (20 mM NH4(CH3COO)2, 3 mM MnCl2, pH 7.6). In order to get a fully active enzyme the solution was incubated for 60 min at room temperature.
450 μl glutaminyl pyrrolidine or glutaminyl thiazolidine in an concentration range of 5*10^−3 M-5*10^−7 M were admixed with 500 μl buffer solution (20 mM […], pH 7.6) and 250 μl Ile-Pro-OH (0.5 mM in the assay mixture). The assay mixture was pre-incubated at 30° C. for 5 min. After pre-incubation, 75 μl Prolidase (1:10 diluted in assay buffer) were added and measurement was performed at 30° C. and λ=220 nm for 20 min using a UV/Vis photometer, UV1 (Thermo Spectronic, Cambridge, UK).
The IC 50-values were calculated using Graphit 4.0.15 (Erithacus Software, Ltd., UK).

[4] = target: T4, porcine dipeptidyl peptidase II (DP II) (Sus scrofa, UniProt A0A5G2QK18); test: Inhibition of DPIV-like enzymes, dipeptidyl peptidase II; conditions: lysylalanylaminomethylcoumarine, 30° C.; read-out: Ki against porcine dipeptidyl peptidase II
T4 construct: The enzyme used was purified from porcine kidney; from tissue; host or cells: porcine kidney
Description: DP II (3.4.14.2) releases N-terminal dipeptides from oligopeptides if the N-terminus is not protonated (McDonald, J. K., Ellis, S. & Reilly, T. J., 1966, J. Biol. Chem., 241, 1494-1501). Pro and Ala in Pi-position are preferred residues. The enzyme activity is described as DPIV-like activity, but DP II has an acidic pH-optimum. The enzyme used was purified from porcine kidney.
100 μl glutaminyl pyrrolidine or glutaminyl thiazolidine in an concentration range of 1*10^−4 M-5*10^−8 M were admixed with 100 μl μl buffer solution (40 mM HEPES, pH7.6, 0.015% Brij, 1 mM DTT), 50 μl lysylalanylaminomethylcoumarine solution (5 mM) and 20 μl porcine DP II (250fold diluted in buffer solution). Fluorescence measurement was performed at 30° C. and λexiatation=380 nm, λemission=465 nm for 25 min using a plate reader (HTS7000plus, Applied Biosystems, Weiterstadt, Germany).

Chain of purified porcine DPIV (P22411 whole entry): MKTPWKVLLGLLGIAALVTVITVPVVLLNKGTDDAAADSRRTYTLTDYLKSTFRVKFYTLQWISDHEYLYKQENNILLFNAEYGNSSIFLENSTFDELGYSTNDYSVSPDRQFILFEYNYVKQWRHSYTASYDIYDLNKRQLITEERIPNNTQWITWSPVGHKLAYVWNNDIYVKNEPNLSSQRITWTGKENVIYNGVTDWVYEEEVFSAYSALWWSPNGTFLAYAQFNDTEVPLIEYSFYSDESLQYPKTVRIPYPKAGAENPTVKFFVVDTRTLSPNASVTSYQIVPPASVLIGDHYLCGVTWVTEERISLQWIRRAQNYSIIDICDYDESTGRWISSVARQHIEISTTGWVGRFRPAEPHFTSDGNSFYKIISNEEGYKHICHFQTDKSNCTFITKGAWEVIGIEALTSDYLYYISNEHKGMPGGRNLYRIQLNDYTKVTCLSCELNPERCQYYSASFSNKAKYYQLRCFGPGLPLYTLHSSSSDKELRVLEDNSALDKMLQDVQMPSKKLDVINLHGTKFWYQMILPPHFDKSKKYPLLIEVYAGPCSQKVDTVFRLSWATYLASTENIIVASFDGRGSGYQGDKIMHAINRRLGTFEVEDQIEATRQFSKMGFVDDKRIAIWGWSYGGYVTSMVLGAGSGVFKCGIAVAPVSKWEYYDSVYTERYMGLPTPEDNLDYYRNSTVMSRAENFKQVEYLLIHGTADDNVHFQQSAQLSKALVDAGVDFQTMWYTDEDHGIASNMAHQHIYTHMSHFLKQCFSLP
T1 sequence (P22411 whole entry): as above
T4 sequence (A0A5G2QK18 28-502): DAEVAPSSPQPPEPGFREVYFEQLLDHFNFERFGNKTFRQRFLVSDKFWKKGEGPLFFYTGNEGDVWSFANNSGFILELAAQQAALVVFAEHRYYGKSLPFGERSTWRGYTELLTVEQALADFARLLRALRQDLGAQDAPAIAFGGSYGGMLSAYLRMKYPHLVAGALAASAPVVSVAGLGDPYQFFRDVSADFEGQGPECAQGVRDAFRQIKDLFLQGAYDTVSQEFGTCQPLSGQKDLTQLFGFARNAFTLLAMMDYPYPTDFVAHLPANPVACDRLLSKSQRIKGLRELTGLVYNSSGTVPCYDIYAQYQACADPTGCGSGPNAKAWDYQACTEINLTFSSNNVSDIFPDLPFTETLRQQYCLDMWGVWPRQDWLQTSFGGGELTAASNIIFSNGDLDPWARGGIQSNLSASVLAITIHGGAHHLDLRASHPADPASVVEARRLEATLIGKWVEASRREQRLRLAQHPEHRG

Ki [1]: 2.26 µM
IC50 (purified porcine DPIV): 15 µM
inhibition of the DP I enzyme activity [2]: No inhibition
IC50 [3]: 340 µM
Ki [4]: 85.2 µM
Structure (SMILES): NC(=O)CCC(N)C(=O)N1CCCC1 (centres unmarked) [Gln-Pyrr, glutaminyl pyrrolidine]
